Results: US20260226006A1, “INDOLE COMPOUND, PREPARATION METHOD THEREFOR AND USE THEREOF” (SUZHOU MERNA THERAPEUTICS CO. LTD, priority 2023, published 2026)

System: skin of hind limb toes of mice
Assay: Chemotherapeutic drug-induced mouse models with hand-foot syndrome (Example 23)
Type: in vivo, ICR mice
Settings: compound 2b 3% ointment topical or nicotinamide 100 mg/kg oral; for expression level of cytokine IL-8 in skin tissues of hind limb toes: capecitabine model; for thickening of the epidermal layer and the stratum corneum in the skin tissues (pathological staining) / swelling of the toes caused by the modeling drugs: capecitabine or docetaxel model; for swelling of the toes caused by the modeling drugs: once daily 16 days; for expression level of cytokine IL-6 in skin tissues of hind limb toes: docetaxel model
Excerpt: After adaptive feeding for 7 days, SPF-grade ICR mice (male, 5-6 weeks old, with a body weight of approximately 35 g) were randomly divided into groups, including a blank control group (6 mice), a capecitabine modeling group (6 mice), a docetaxel modeling group (6 mice), a capecitabine+compound 2b group (6 mice), a docetaxel+compound 2b group (6 mice), a capecitabine+nicotinamide group (6 mice), and a docetaxel+nicotinamide group (6 mice). The groups were respectively administered corresponding modeling drugs by oral gavage (capecitabine at 200 mg/kg and docetaxel at 25 mg/kg) once daily, and the blank control group was administered an equivalent volume of normal saline. After administration with the chemotherapeutic drugs for 2 weeks, the compound ointments (at a compound content of 3%) used in Example 22 were respectively applied topically in the groups, or nicotinamide was orally administered (100 mg/kg) once daily continuously for 16 days.
Measurement of the degree of swelling of toes: The degree of swelling of hind limb toes of the mice was measured using a toe swelling tester (KW-7C, Nanjing Calvin Biotechnology Co., Ltd.) before administration with the modeling drugs, after administration with the modeling drugs for 2 weeks, and before sacrifice, respectively. Before measurement, ankle joints of hind paws of the mice were marked at same positions before administration, after administration for 2 weeks, and before sacrifice. During measurement, water was properly located at the same level as the marked positions, and numerical values were recorded after becoming stable.
Pathological staining of skin tissues: Skin tissue samples were selected from hind limb toes of the mice and placed in 4% paraformaldehyde for fixation at room temperature for 4 hours. Then, the tissues were taken out and rinsed with running water for several hours. The samples were subjected to dehydration treatment with 70%, 80%, and 90% ethanol solutions, followed by treatment with a mixed solution of equal amounts of absolute alcohol and xylene for 15 minutes, and then permeabilized twice with a xylene solution for 15 minutes each time until the samples became transparent. The samples were placed in a mixture of half xylene and half paraffin for soaking for 15 minutes, and then, paraffin I and paraffin II were added for wax penetration for one hour, respectively. After embedding with paraffin, the samples were sectioned, baked, dewaxed, and hydrated. Then, the hydrated sections were placed in a hematoxylin solution (ZSGB-BIO, article No. 23041001) for staining for 3 minutes, and a differentiation solution of hydrochloric acid in ethanol was added for differentiation for 15 seconds. After rinsing with water, a Scott bluing solution (Servicebio, article No. 20230801) was added for bluing for 15 seconds. After rinsing with running water, the sections were stained with an eosin solution (Solarbio, article No. 33535) for 3 minutes, rinsed with running water, dehydrated, permeabilized, sealed, and inspected under a microscope.
Immunohistochemical staining: After baking, dewaxing, and hydration, paraffin sections of skin tissues of hind limb toes of the mice were subjected to antigen retrieval using a 0.2 M citric acid buffer solution (containing 1.534 g of citric acid, 3.1 g of sodium citrate, and 100 mL of distilled water, pH 4.7). Endogenous […] was removed using 3% hydrogen peroxide (Shandong Annjet High-Tech Disinfection Technology Co., Ltd., article No. 20290902), and the sections were incubated at room temperature for 10 minutes and then fully rinsed with a PBS buffer solution (containing 8 g of NaCl, 0.2 g of KCl, 1.44 g of Na2HPO4, and 1 M HCl, pH 7.4). The sections were permeabilized with 0.5% Triron-X-100 (AmyJet Scientific, article No. A-CSH436-100 mL), respectively permeabilized with mouse anti-IL-1β and rabbit IL-8 for 10 minutes, and not permeabilized with rabbit anti-IL-6. […]

Row | Structure (SMILES) | expression level of cytokine IL-8 in skin tissues of hind limb toes | thickening of the epidermal layer and the stratum corneum in the skin tissues (pathological staining) | swelling of the toes caused by the modeling drugs | expression level of cytokine IL-6 in skin tissues of hind limb toes
1 | NC(=O)[C@H]1CCCc2c1[nH]c1ccc(Cl)cc21 [Compound 2b, (S)-6-chloro-2,3,4,9-tetrahydro-1H-carbazole-1-carboxamide] | significantly decrease | effectively alleviate | significantly alleviate | significantly decrease
2 | NC(=O)c1cccnc1 [Nicotinamide, nicotinamide] | does not have a significant impact | mildly alleviates | not observed that oral administration of the nicotinamide at 100 mg/kg significantly alleviates the swelling | does not have a significant impact
